For 28 molecules, EC50 results are on record in patent US20250154173A1 (Merck Sharp & Dohme LLC, priority 2023, published 2025).

For the experiment, the target named is T1, GST-RIPK1 (recombinant GST-RIPK1 kinase domain (residues 1-327)) (Homo sapiens, UniProt Q13546).
T1 construct: recombinant GST-RIPK1 kinase domain (residues 1-327) enzyme produced from baculovirus-transfected Sf21 cells; host or cells: baculovirus-transfected Sf21 insect cells
T1 sequence (Q13546 1-327): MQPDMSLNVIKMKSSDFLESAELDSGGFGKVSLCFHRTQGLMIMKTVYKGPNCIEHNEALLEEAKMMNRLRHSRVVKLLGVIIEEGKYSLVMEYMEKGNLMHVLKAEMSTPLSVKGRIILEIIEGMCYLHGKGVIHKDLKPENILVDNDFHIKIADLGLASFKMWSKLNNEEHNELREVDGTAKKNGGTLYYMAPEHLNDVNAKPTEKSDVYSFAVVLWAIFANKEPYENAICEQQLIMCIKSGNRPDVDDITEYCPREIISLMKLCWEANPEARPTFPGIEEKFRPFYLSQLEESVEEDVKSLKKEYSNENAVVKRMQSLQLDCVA
The experiment can be described thus: RIPK1-ADP-Glo Enzymatic Assay. It is filed as biochemical. To be noted: ten-point titration, top compound concentration of 100000 nM; 25 nM GST-RIPK1, 300 μM ATP, 3 μM dephosphorylated-MBP; 30 min pre-incubation, 150 min reaction. Summed up:
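GST-RIPK1 kinase domain (residues 1-327, Sf21-expressed), 25 nM, preincubated 30 min with compound, then reacted 150 min with 300 μM ATP and 3 μM dephosphorylated MBP in pH 7.3 Hepes buffer, 1% DMSO. ADP measured by ADP-Glo luminescence; EC50 from ten-point titration (top 100000 nM), four-parameter fit.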
In general terms: ADP-Glo turns the ADP formed in a reaction into a luminescent signal.

As a reminder, the EC50 is the concentration at which the effect is half-maximal. As to `O=C1N2[C@@H](CC[C@H]2c2cnccn2)O[C@]12C[C@H](Oc1ccc(F)cc1F)C2` [Example 7.1, (1r,3R,5′S,7a′R)-3-(2,4-difluorophenoxy)-5′-(pyrazin-2-yl)tetrahydro-3′H-spiro[cyclobutane-1,2′-pyrrolo[2,1-b]oxazol]-3′-one], the EC50 came out at 20 nM.
The same measure for `O=C1N2[C@@H](CC[C@H]2c2cnccn2)O[C@]12C[C@@H](Oc1ccc(F)cc1F)C2` [Example 7.2, (1s,3S,5′S,7a′R)-3-(2,4-difluorophenoxy)-5′-(pyrazin-2-yl)tetrahydro-3′H-spiro[cyclobutane-1,2′-pyrrolo[2,1-b]oxazol]-3′-one]: 18 nM; for `N#Cc1ccc(O[C@H]2C[C@@]3(C2)O[C@@H]2CC[C@@H](c4ccccc4)N2C3=O)cc1F` [Example 8.1, 2-fluoro-4-(((1r,3R,5′S,7a′R)-3′-oxo-5′-phenyltetrahydro-3′H-spiro[cyclobutane-1,2′-pyrrolo[2,1-b]oxazol]-3-yl)oxy)benzonitrile]: 31 nM.
The same measure for `N#Cc1ccc(OC2CC3(C2)O[C@@H]2CC[C@@H](c4ccccc4)N2C3=O)cn1` (stereo partly drawn) [Example 8.2, 5-{[(5′S,7a′R)-3′-oxo-5′-phenyltetrahydro-3′H-spiro[cyclobutane-1,2′-pyrrolo[2,1-b][1,3]oxazol]-3-yl]oxy}pyridine-2-carbonitrile]: 251 nM; for `N#Cc1ccc(F)c(OC2CC3(C2)O[C@@H]2CC[C@@H](c4ccccc4)N2C3=O)c1` (stereo partly drawn) [Example 8.3, 4-fluoro-3-{[(5′S,7a′R)-3′-oxo-5′-phenyltetrahydro-3′H-spiro[cyclobutane-1,2′-pyrrolo[2,1-b][1,3]oxazol]-3-yl]oxy}benzonitrile]: 20 nM.
In the case of `O=C1N2[C@@H](CC[C@H]2c2ccccc2)OC12CC(Oc1ccnc(C(F)(F)F)c1)C2` (stereo partly drawn) [Example 8.4, (5′S,7a′R)-5′-phenyl-3-{[2-(trifluoromethyl)pyridin-4-yl]oxy}tetrahydro-3′H-spiro[cyclobutane-1,2′-pyrrolo[2,1-b][1,3]oxazol]-3′-one] it was 86 nM; in that of `N#Cc1cccc(OC2CC3(C2)O[C@@H]2CC[C@@H](c4ccccc4)N2C3=O)c1` (stereo partly drawn) [Example 8.5, 3-{[(5′S,7a′R)-3′-oxo-5′-phenyltetrahydro-3′H-spiro[cyclobutane-1,2′-pyrrolo[2,1-b][1,3]oxazol]-3-yl]oxy}benzonitrile], 20 nM; in that of `COc1cncc(OC2CC3(C2)O[C@@H]2CC[C@@H](c4ccccc4)N2C3=O)c1` (stereo partly drawn) [Example 8.6, (5′S,7a′R)-3-[(5-methoxypyridin-3-yl)oxy]-5′-phenyltetrahydro-3′H-spiro[cyclobutane-1,2′-pyrrolo[2,1-b][1,3]oxazol]-3′-one], 65 nM.
For the molecule `O=C1N2[C@@H](CC[C@H]2c2ccccc2)OC12CC(Oc1ccncc1F)C2` (stereo partly drawn) [Example 8.7, (5′S,7a′R)-3-[(3-fluoropyridin-4-yl)oxy]-5′-phenyltetrahydro-3′H-spiro[cyclobutane-1,2′-pyrrolo[2,1-b][1,3]oxazol]-3′-one], the EC50 is 74 nM.
In the case of `O=C1N2[C@@H](CC[C@H]2c2ccccc2)OC12CC(Oc1cncc(C(F)(F)F)c1)C2` (stereo partly drawn) [Example 8.8, (5′S,7a′R)-5′-phenyl-3-{[5-(trifluoromethyl)pyridin-3-yl]oxy}tetrahydro-3′H-spiro[cyclobutane-1,2′-pyrrolo[2,1-b][1,3]oxazol]-3′-one] it was 155 nM; in that of `N#Cc1ccc(OC2CC3(C2)O[C@@H]2CC[C@@H](c4ccccc4)N2C3=O)cc1` (stereo partly shown) [Example 8.9], 72 nM.
The same measure for `O=C1N2[C@@H](CC[C@H]2c2ccccc2)OC12CC(Oc1cccc(F)c1)C2` (stereo partly drawn) [Example 8.10, (5′S,7a′R)-3-(3-fluorophenoxy)-5′-phenyltetrahydro-3′H-spiro[cyclobutane-1,2′-pyrrolo[2,1-b][1,3]oxazol]-3′-one]: 11 nM; for `O=C1N2[C@@H](CC[C@H]2c2ccccc2)OC12CC(Oc1ccnc(Cl)c1)C2` (stereo partly drawn) [Example 8.11, (5′S,7a′R)-3-[(2-chloropyridin-4-yl)oxy]-5′-phenyltetrahydro-3′H-spiro[cyclobutane-1,2′-pyrrolo[2,1-b][1,3]oxazol]-3′-onee]: 32 nM.
In the case of `O=C1N2[C@@H](CC[C@H]2c2ccccc2)OC12CC(Oc1cccc3sncc13)C2` (stereo partly drawn) [Example 8.12, (5′S,7a′R)-3-[(1,2-benzothiazol-4-yl)oxy]-5′-phenyltetrahydro-3′H-spiro[cyclobutane-1,2′-pyrrolo[2,1-b][1,3]oxazol]-3′-one] it was 20 nM.
For `Cc1cc(OC2CC3(C2)O[C@@H]2CC[C@@H](c4ccccc4)N2C3=O)ccc1F` (stereo partly drawn) [Example 8.13, (5′S,7a′R)-3-(4-fluoro-3-methylphenoxy)-5′-phenyltetrahydro-3′H-spiro[cyclobutane-1,2′-pyrrolo[2,1-b][1,3]oxazol]-3′-one], the EC50 is 62 nM.
In the case of `O=C1N2[C@@H](CC[C@H]2c2ccccc2)OC12CC(Oc1ccc3sncc3c1)C2` (stereo partly drawn) [Example 8.14, (5′S,7a′R)-3-[(1,2-benzothiazol-5-yl)oxy]-5′-phenyltetrahydro-3′H-spiro[cyclobutane-1,2′-pyrrolo[2,1-b][1,3]oxazol]-3′-one], the EC50 was 83 nM.
The same measure for `O=C1N2[C@@H](CC[C@H]2c2ccccc2)OC12CC(Oc1cccc(C(F)(F)F)c1)C2` (stereo partly drawn) [Example 8.15, (5′S,7a′R)-5′-phenyl-3-[3-(trifluoromethyl)phenoxy]tetrahydro-3′H-spiro[cyclobutane-1,2′-pyrrolo[2,1-b][1,3]oxazol]-3′-one]: 37 nM; for `O=C1N2[C@@H](CC[C@H]2c2ccccc2)OC12CC(Oc1cccc(-c3nnco3)c1)C2` (stereo partly drawn) [Example 8.16, (5′S,7a′R)-3-[3-(1,3,4-oxadiazol-2-yl)phenoxy]-5′-phenyltetrahydro-3′H-spiro[cyclobutane-1,2′-pyrrolo[2,1-b][1,3]oxazol]-3′-one]: 58 nM; for `O=C1N2[C@@H](CC[C@H]2c2ccccc2)OC12CC(Oc1cncc(Cl)c1)C2` (stereo partly shown) [Example 8.17]: 35 nM.
In the case of `COc1cc(OC2CC3(C2)O[C@@H]2CC[C@@H](c4ccccc4)N2C3=O)ccc1F` (stereo partly drawn) [Example 8.18, (5′S,7a′R)-3-(4-fluoro-3-methoxyphenoxy)-5′-phenyltetrahydro-3′H-spiro[cyclobutane-1,2′-pyrrolo[2,1-b][1,3]oxazol]-3′-one] it was 21 nM.
Regarding `O=C1N2[C@@H](CC[C@H]2c2ccccc2)OC12CC(Oc1cccc3cnoc13)C2` (stereo partly shown) [Example 8.19], the 50% effective concentration (EC50) turned out to be 254 nM.
Regarding `O=C1N2[C@@H](CC[C@H]2c2ccccc2)OC12CC(Oc1nccc3nccn13)C2` (stereo partly drawn) [Example 8.20, (5′S,7a′R)-3-[(imidazo[1,2-c]pyrimidin-5-yl)oxy]-5′-phenyltetrahydro-3′H-spiro[cyclobutane-1,2′-pyrrolo[2,1-b][1,3]oxazol]-3′-one], the half-maximal effective concentration (EC50) is 20 nM.
With `O=C1N2[C@@H](CC[C@H]2c2ccccc2)OC12CC(Oc1ccnn3cccc13)C2` (stereo partly drawn) [Example 8.21, (5′S,7a′R)-5′-phenyl-3-[(pyrrolo[1,2-b]pyridazin-4-yl)oxy]tetrahydro-3′H-spiro[cyclobutane-1,2′-pyrrolo[2,1-b][1,3]oxazol]-3′-one], the EC50 was 39 nM.
On to `O=C1N2[C@@H](CC[C@H]2c2ccc(F)cc2)O[C@]12C[C@H](Oc1ccnn3cccc13)C2` [Example 8.22, (1r,3R,5′S,7a′R)-5′-(4-fluorophenyl)-3-(pyrrolo[1,2-b]pyridazin-4-yloxy)tetrahydro-3′H-spiro[cyclobutane-1,2′-pyrrolo[2,1-b]oxazol]-3′-one], for which the concentration for a half-maximal effect (EC50) came to 29 nM.
With `O=C1N2[C@@H](CC[C@H]2c2ccccc2)OC12CC(Oc1nncc3cccn13)C2` (stereo partly drawn) [Example 8.23, (5′S,7a′R)-5′-phenyl-3-[(pyrrolo[1,2-d][1,2,4]triazin-4-yl)oxy]tetrahydro-3′H-spiro[cyclobutane-1,2′-pyrrolo[2,1-b][1,3]oxazol]-3′-one], the 50% effective concentration (EC50) turned out to be 29 nM.
In the case of `N#Cc1cc(O[C@H]2C[C@@]3(C2)O[C@@H]2CC[C@@H](c4ccc(F)cc4)N2C3=O)ncn1` [Example 9.1, 6-(((1r,3R,5′S,7a′R)-5′-(4-fluorophenyl)-3′-oxotetrahydro-3′H-spiro[cyclobutane-1,2′-pyrrolo[2,1-b]oxazol]-3-yl)oxy)pyrimidine-4-carbonitrile] it was 14 nM; in that of `N#Cc1cc(O[C@H]2C[C@@]3(C2)O[C@@H]2CC[C@@H](c4cc(F)cc(F)c4)N2C3=O)ncn1` [Example 9.2, 6-(((5′S,7a′R)-5′-(3,5-difluorophenyl)-3′-oxotetrahydro-3′H-spiro[cyclobutane-1,2′-pyrrolo[2,1-b]oxazol]-3-yl)oxy)pyrimidine-4-carbonitrile], 16 nM.
For `O=C1N2[C@@H](CC[C@H]2c2cc(F)cc(F)c2)O[C@]12C[C@H](Oc1cc(Cl)ncn1)C2` [Example 9.3, (5′S,7a′R)-3-((6-chloropyrimidin-4-yl)oxy)-5′-(3,5-difluorophenyl)tetrahydro-3′H-spiro[cyclobutane-1,2′-pyrrolo[2,1-b]oxazol]-3′-one], the EC50 worked out at 10 nM.
